Reference: US20160168540A1, “COMPOSITION FOR MAINTAINING PLATELET FUNCTION” (KYOTO UNIVERSITY, priority 2013, published 2016)

Target: T1, TACE (ADAM17) (Homo sapiens, UniProt P78536)
T1 construct: made in house; host or cells: mammalian cells or insect cells
Assay: TACE (ADAM17) inhibition test
Type: biochemical
Details: fluorescent synthetic substrate, 37° C. for 1.5 hours; read-out: TACE IC50
Excerpt: The nucleotide sequence of TACE has been reported by Moss et al. (Moss, M. L. et al., Nature 1997, vol. 385, pp. 733-736). Based on this information, the cDNA of TACE was obtained according to the prescribed method from THP-1 cells or the like, and then incorporated the cDNA into an expression vector. Next, this vector was transformed into mammalian cells or insect cells, and TACE protein was expressed. The TACE protein was isolated, and used as an enzyme. Further, a fluorescent synthetic substrate Nma(N-methylanthranilic acid)-Leu-Ala-Gln-Ala-Val-Arg-Ser-Ser-Lys(Dnp(dinitrophenyl))-D-Arg-NH2 including the TACE-cleaved sequence of a membrane-bound TNF was used as a substrate. The enzyme reaction was carried out by adding 1.8 μL of a solution of the test substance to 90 μL of a fluorescent synthetic substrate prepared with an assay buffer B (50 mM tris-hydrochloric acid buffer (pH 7.5) including 200 mM sodium chloride, 5 mM calcium chloride, 10 μM zinc sulfate, and 0.05% PLURONIC F-68), then mixing 90 μL of a TACE enzyme solution prepared with an assay buffer A (50 mM tris-hydrochloric acid buffer (pH 7.5) including 200 mM sodium chloride, 5 mM calcium chloride, 10 μM zinc sulfate, and 2 mg/mL bovine serum albumin) and reacting at 37° C. for 1.5 hours. Enzyme activity was then determined by measuring with a fluorescence intensity meter (Labsystems, Fluoroskan Ascent) at an excitation wavelength of 355 nm and a measurement wavelength of 460 nm. The 50% inhibitory concentration (IC50) of the test substances was calculated by comparing enzyme activity in the presence and the absence of the test substance to determine the inhibition rate. Further, test substances having an IC50 strength of less than 100 nM were evaluated as “A”, and test substances having an IC50 strength of 100 nM or more were evaluated as “B”.

T1 sequence (P78536 215-824): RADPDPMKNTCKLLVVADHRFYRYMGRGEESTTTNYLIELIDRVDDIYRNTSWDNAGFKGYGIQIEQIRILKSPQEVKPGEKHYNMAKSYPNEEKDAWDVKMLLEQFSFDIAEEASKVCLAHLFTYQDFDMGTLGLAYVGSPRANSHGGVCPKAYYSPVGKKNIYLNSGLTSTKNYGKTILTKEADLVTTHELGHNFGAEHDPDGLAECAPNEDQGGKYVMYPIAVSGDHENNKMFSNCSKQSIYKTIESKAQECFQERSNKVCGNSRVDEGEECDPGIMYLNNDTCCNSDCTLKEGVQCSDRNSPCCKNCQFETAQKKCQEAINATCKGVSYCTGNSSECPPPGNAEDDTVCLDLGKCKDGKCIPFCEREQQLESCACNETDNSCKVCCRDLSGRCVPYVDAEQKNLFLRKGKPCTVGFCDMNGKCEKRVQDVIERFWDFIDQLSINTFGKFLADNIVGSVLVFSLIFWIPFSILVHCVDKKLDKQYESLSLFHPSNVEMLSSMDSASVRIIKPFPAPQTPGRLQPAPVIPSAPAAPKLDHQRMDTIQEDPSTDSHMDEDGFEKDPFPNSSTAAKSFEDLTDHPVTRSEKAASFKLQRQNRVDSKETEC

IC50	Structure (SMILES)
< 100 nM	Cc1cccn(CC2(c3cccc(Br)c3)NC(=O)NC2=O)c1=O (racemic) [Compound I-57]
< 100 nM	Cc1cccn(CC2(c3cccc(-c4ccc(F)cn4)c3)NC(=O)NC2=O)c1=O (racemic) [Compound I-93]
< 100 nM	COc1cc(C2(Cn3cccc(C)c3=O)NC(=O)NC2=O)ccc1F (racemic) [Compound I-12, 5-(4-fluoro-3-methoxyphenyl)-5-[(3-methyl-2-oxopyridin-1(2H)-yl)methyl]imidazolidine-2,4-dione]
< 100 nM	Cc1cccn(CC2(c3ccc(OC(F)F)cc3)NC(=O)NC2=O)c1=O (racemic) [Compound I-78]
< 100 nM	Cc1cccn(CC2(c3ccc(Oc4ccccc4)c(F)c3)NC(=O)NC2=O)c1=O (racemic) [Compound I-87]
< 100 nM	Cc1cccn(CC2(c3ccc(C#CC(C)(C)C)cc3)NC(=O)NC2=O)c1=O (racemic) [Compound I-33, 5-[4-(3,3-dimethylbut-1-yn-1-yl)phenyl]-5-[(3-methyl-2-oxopyridin-1(2H)-yl)methyl]imidazolidine-2,4-dione]
≥ 100 nM	Cc1cccn(CC2(c3ccc(CCC4CCCCC4)cc3)NC(=O)NC2=O)c1=O (racemic) [Compound I-118]
< 100 nM	CCc1ccc(C2(Cn3cccc(C)c3=O)NC(=O)NC2=O)cc1 (racemic) [Compound I-116]
< 100 nM	Cc1cccn(CC2(c3ccc4ccccc4c3)NC(=O)NC2=O)c1=O (racemic) [Compound I-56]
< 100 nM	COc1ccccc1Oc1ccc(C2(Cn3cccc(C)c3=O)NC(=O)NC2=O)cc1F (racemic) [Compound I-114]
≥ 100 nM	Cc1cccn(CC2(c3ccc(F)cc3F)NC(=O)NC2=O)c1=O (racemic) [Compound I-61]
< 100 nM	Cc1cc(C2(Cn3cccc(C)c3=O)NC(=O)NC2=O)ccc1OC1CCCCC1 (racemic) [Compound I-131]
< 100 nM	COc1ccccc1-c1ccc(C2(Cn3cccc(C)c3=O)NC(=O)NC2=O)cc1 (racemic) [Compound I-74]
< 100 nM	Cc1cccn(CC2(c3ccc(C(C)(C)C)cc3)NC(=O)NC2=O)c1=O (racemic) [Compound I-17, 5-[4-(tert-butyl)phenyl]-5-[(3-methyl-2-oxopyridin-1(2H)-yl)methyl]imidazolidine-2,4-dione]
≥ 100 nM	O=C1NC(=O)C(Cn2ccccc2=O)(c2ccc(Cc3ccccc3)cc2)N1 (racemic) [Compound I-156]
< 100 nM	Cc1cccn(CC2(c3ccc(C4CCCCC4)cc3)NC(=O)NC2=O)c1=O (racemic) [Compound I-66]
< 100 nM	O=C1NC(=O)C(Cn2ccccc2=O)(c2ccccc2)N1 (racemic) [Compound I-46, 5-[(2-oxopyridin-1(2H)-yl)methyl]-5-phenylimidazolidine-2,4-dione]
< 100 nM	Cc1cccn(CC2(c3ccc(Cc4ccc(F)cc4)cc3)NC(=O)NC2=O)c1=O (racemic) [Compound I-41, 5-[4-(4-fluorobenzyl)phenyl]-5-[(3-methyl-2-oxopyridin-1(2H)-yl)methyl]imidazolidine-2,4-dione]
< 100 nM	Cc1cccn(CC2(c3ccc(C#N)cc3)NC(=O)NC2=O)c1=O (racemic) [Compound I-3, 4-{4-[(3-methyl-2-oxopyridin-1(2H)-yl)methyl]-2,5-dioxoimidazolidine-4-yl}benzonitrile]
< 100 nM	Cc1cccn(CC2(c3ccccn3)NC(=O)NC2=O)c1=O (racemic) [Compound I-7, 5-[(3-methyl-2-oxopyridin-1(2H)-yl)methyl]-5-(pyridin-2-yl)imidazolidine-2,4-dione]
< 100 nM	Cc1cccn(CC2(c3cc(F)ccc3F)NC(=O)NC2=O)c1=O (racemic) [Compound I-154]
≥ 100 nM	Cc1cccn(CC2(c3ccccc3OCc3ccccc3)NC(=O)NC2=O)c1=O (racemic) [Compound I-68]
< 100 nM	Cc1cccn(CC2(c3ccc4c(c3)CCCC4)NC(=O)NC2=O)c1=O (racemic) [Compound I-77]
< 100 nM	Cc1cccn(CC2(c3ccc(Oc4cccc(F)c4)cc3)NC(=O)NC2=O)c1=O (racemic) [Compound I-84]
< 100 nM	COc1ccccc1Oc1ccc(C2(Cn3cccc(C)c3=O)NC(=O)NC2=O)cc1 (racemic) [Compound I-113]
< 100 nM	COc1ccc(C2(Cn3cccc(F)c3=O)NC(=O)NC2=O)cc1 (racemic) [Compound I-133]

IC50	Structure (SMILES)
< 100 nM	Cc1cccn(CC2(c3ccc(Sc4ccccc4)c(F)c3)NC(=O)NC2=O)c1=O (racemic) [Compound I-103]
< 100 nM	COc1ccc(C2(Cn3cccc(C)c3=O)NC(=O)NC2=O)c(OC)c1 (racemic) [Compound I-18, 5-(2,4-dimethoxyphenyl)-5-[(3-methyl-2-oxopyridin-1(2H)-yl)methyl]imidazolidine-2,4-dione]
< 100 nM	COc1ccc(C2(Cn3ccccc3=O)NC(=O)NC2=O)cc1 (racemic) [Compound I-47, 5-(4-methoxyphenyl)-5-[(2-oxopyridin-1(2H)-yl)methyl]imidazolidine-2,4-dione]
< 100 nM	O=C1NC(=O)C(Cn2cccc(Cl)c2=O)(c2ccc(F)c(F)c2)N1 (racemic) [Compound I-146]
< 100 nM	O=C1NC(=O)C(Cn2cccc(F)c2=O)(c2ccccc2)N1 (racemic) [Compound I-132]
< 100 nM	N#Cc1ccc(C2(Cn3cccc(F)c3=O)NC(=O)NC2=O)cc1 (racemic) [Compound I-134]
< 100 nM	Cc1cccn(CC2(c3cccc(-c4ccncc4)c3)NC(=O)NC2=O)c1=O (racemic) [Compound I-95]
< 100 nM	COc1ccc(Oc2ccc(C3(Cn4cccc(C)c4=O)NC(=O)NC3=O)cc2)cc1 (racemic) [Compound I-81]
≥ 100 nM	Cc1cccn(CC2(c3cccc(O)c3)NC(=O)NC2=O)c1=O (racemic) [Compound I-54, 5-(3-hydroxyphenyl)-5-[(3-methyl-2-oxopyridin-1(2H)-yl)methyl]imidazolidine-2,4-dione]
< 100 nM	Cc1cccn(CC2(c3cccc(F)c3)NC(=O)NC2=O)c1=O (racemic) [Compound I-28, 5-(3-fluorophenyl)-5-[(3-methyl-2-oxopyridin-1(2H)-yl)methyl]imidazolidine-2,4-dione]
< 100 nM	Cc1cccn(CC2(c3ccc(Oc4ccc(F)c(F)c4)cc3)NC(=O)NC2=O)c1=O (racemic) [Compound I-98]
< 100 nM	Cc1cccn(CC2(c3ccc(OC4CCCCC4)cc3)NC(=O)NC2=O)c1=O (racemic) [Compound I-37, 5-[4-(cyclohexyloxy)phenyl]-5-[(3-methyl-2-oxopyridin-1(2H)-yl)methyl]imidazolidine-2,4-dione]
< 100 nM	Cc1cccn(CC2(c3cccc(OCc4ccccc4)c3)NC(=O)NC2=O)c1=O (racemic) [Compound I-58]
< 100 nM	Cc1cccn(CC2(c3cc(F)c(F)cc3F)NC(=O)NC2=O)c1=O (racemic) [Compound I-29, 5-[(3-methyl-2-oxopyridin-1(2H)-yl)methyl]-5-(2,4,5-trifluorophenyl)imidazolidine-2,4-dione]
< 100 nM	O=C1NC(=O)C(Cn2cccc(F)c2=O)(c2ccc(-c3ccccc3)cc2)N1 (racemic) [Compound I-49, 5-([1,1′-biphenyl]-4-yl)-5-[(3-fluoro-2-oxopyridin-1(2H)-yl)methyl]imidazolidine-2,4-dione]
< 100 nM	COc1cccc(-c2ccc(C3(Cn4cccc(C)c4=O)NC(=O)NC3=O)cc2)c1 (racemic) [Compound I-73]
≥ 100 nM	Cc1cccn(CC2(c3cccc(C#CC(C)(C)C)c3)NC(=O)NC2=O)c1=O (racemic) [Compound I-63]
< 100 nM	Cc1cccn(CC2(c3cccc(C(F)(F)F)c3)NC(=O)NC2=O)c1=O (racemic) [Compound I-19]
< 100 nM	Cc1cccn(CC2(c3ccc(Oc4cc(F)cc(F)c4)cc3)NC(=O)NC2=O)c1=O (racemic) [Compound I-99]
< 100 nM	COc1cc(C2(Cn3cccc(C)c3=O)NC(=O)NC2=O)cc(F)c1F (racemic) [Compound I-127]
< 100 nM	Cc1cccn(CC2(c3cc(F)c(F)c(F)c3)NC(=O)NC2=O)c1=O (racemic) [Compound I-44, 5-[(3-methyl-2-oxopyridin-1(2H)-yl)methyl]-5-(3,4,5-trifluorophenyl)imidazolidine-2,4-dione]
< 100 nM	N#Cc1ccc(C2(Cn3cccc(Cl)c3=O)NC(=O)NC2=O)cc1 (racemic) [Compound I-138]
< 100 nM	Cc1cc(C2(Cn3cccc(C)c3=O)NC(=O)NC2=O)cc(C)c1OC1CCCC1 (racemic) [Compound I-129]
< 100 nM	O=C1NC(=O)C(Cn2ccccc2=O)(c2cc(F)c(F)c(F)c2)N1 (racemic) [Compound I-157]
< 100 nM	O=C1NC(=O)C(Cn2cccc(Br)c2=O)(c2ccc(F)c(F)c2)N1 (racemic) [Compound I-147]
